Assay results taken from patent publication US20040076614A1, “Symbiotic regenerative agent” (priority 2001, published 2004).

Tested on: depression with gastro-intestinal over-growth with Aspergillus and Candida yeasts
Test: Antidepressive effectiveness (proband tests), multi-step method
Type: in vivo, human
Parameters: key: − negative; + positive
Conditions: Level 0 antidepressants (Seroxat); Level 1 1 g/day oral 4 weeks; Level 2 2 g daily oral 4 weeks after level 1
Text: Antidepressive effectiveness (2 proband tests/female 1/male 1)
Diseases such as depressions can often be treated in an exclusively symptomatic way with psychopharmaceuticals. However, mycoses/mycotoxins may be the initial cause of such diseases. The object was to eliminate the gastro-intestinal over-growth with Aspergillus and Candida yeasts using BHQ (see also Patent Application EP 00 124 497), and to apply BHQ R6 regenerative agent in a multi-step method.
Level 0: Depression conservatively treated with antidepressants (Seroxat®). The general state of health was subjectively reported as non-satisfactory; in part, depression attacks occurred at different times of day (e.g., in the evening), so that the dosage was increased. The microbiological detection of Candida spec. and Aspergillus spec. was positive. The probands complained about a high weight increase (“spongy feeling”).
Level 1: For 4 weeks, BHQ “flavor-containing medicament” was administered orally once a day for the decontamination of the mycosis and/or any mycotoxins present (1 g/day).
Level 2: As a next step after level 1, BHQ R6 regenerative agent (2 g daily) was administered orally for 4 weeks.

Compound: Fc1ccc([C@@H]2CCNC[C@H]2COc2ccc3c(c2)OCO3)cc1 [Seroxat]
- General health: −
- Weight increase: +
- microbiological gastro-intestinal detection: Candida spec. Aspergillus spec.: +
- part. status: +
